Values after ≈ are worked out from the molar mass of the structure shown.
Columns and labels:
M. tuberculosis H37Rv = experiment: resazurin reduction assay (MIC99), M. tuberculosis H37Rv; assay type: cell-based; settings: Mycobacterium tuberculosis, BTZ-susceptible wild type strain
Method: Activity against M. tuberculosis strains H37Rv and NBT1 was determined by the resazurin reduction assay (MIC99). The method is described in detail in: J. C. Palomino, A. Martin, M. Camacho, H. Guerra, J. Swings, F. Portaels, Antimicrob. Agents Chemother., 2002, 46, 2720-2722.

## Cl.O=c1nc(N2CCN(CCCCOc3ccccc3)CC2)sc2c([N+](=O)[O-])cc(C(F)(F)F)cc12
other
  melting point: 256 to 258 °C

## CCCCCCCN1CCN(c2nc(=O)c3cc(C(F)(F)F)cc([N+](=O)[O-])c3s2)CC1.Cl (hydrate or solvate)
other
  melting point: 254 to 256 °C

## CCCCN1CCN(c2nc(=O)c3cc(C(F)(F)F)cc([N+](=O)[O-])c3s2)CC1.Cl (hydrate or solvate)
other
  melting point: 239 to 241 °C

## Cl.O=c1nc(N2CCN(CCC3CCCCC3)CC2)sc2c([N+](=O)[O-])cc(C(F)(F)F)cc12 (hydrate or solvate)
other
  melting point: 271 to 273 °C

## Cl.O=c1nc(N2CCCN(C3CCCCC3)CC2)sc2c([N+](=O)[O-])cc(C(F)(F)F)cc12 (hydrate or solvate) [Compound 6, 2-(4-Cyclohexyl-1,4-diazepan-1-yl)-8-nitro-6-(trifluoromethyl)-4H-1,3-benzothiazin-4-one Hydrochloride]
other
  melting point: 290 to 293 °C

## Cl.O=c1nc(N2CCCN(CCc3ccccc3)CC2)sc2c([N+](=O)[O-])cc(C(F)(F)F)cc12 (hydrate or solvate) [Compound 7, 8-Nitro-2-[4-(2-phenylethyl)-1,4-diazepan-1-yl]-6-(trifluoromethyl)-4H-1,3-benzothiazin-4-one Hydrochloride]
other
  melting point: 264 to 267 °C

## Cl.O=c1nc(N2CCCN(CC3CCCCC3)CC2)sc2c([N+](=O)[O-])cc(C(F)(F)F)cc12 [Compound 1, 2-[4-(Cyclohexylmethyl)-1,4-diazepan-1-yl]-8-nitro-6-(trifluoromethyl)-4H-1,3-benzothiazin-4-one Hydrochloride]
M. tuberculosis H37Rv
  MIC99: 1 ng/mL
other
  melting point: 269 to 271 °C

## CCCCCN1CCCN(c2nc(=O)c3cc(C(F)(F)F)cc([N+](=O)[O-])c3s2)CC1.Cl [Compound 2, 8-Nitro-2-(4-pentyl-1,4-diazepan-1-yl)-6-(trifluoromethyl)-4H-1,3-benzothiazin-4-one Hydrochloride]
M. tuberculosis H37Rv
  MIC99: 0.2 ng/mL
other
  melting point: 246 to 248 °C

## CCCCCCN1CCCN(c2nc(=O)c3cc(C(F)(F)F)cc([N+](=O)[O-])c3s2)CC1.Cl [Compound 3, 2-(4-Hexyl-1,4-diazepan-1-yl)-8-nitro-6-(trifluoromethyl)-4H-1,3-benzothiazin-4-one Hydrochloride]
M. tuberculosis H37Rv
  MIC99: 0.2 ng/mL
other
  melting point: 249 to 251 °C

## Cl.O=c1nc(N2CCCN(CCC3CCCCC3)CC2)sc2c([N+](=O)[O-])cc(C(F)(F)F)cc12 [Compound 4, 2-[4-(2-Cyclohexylethyl)-1,4-diazepan-1-yl]-8-nitro-6-(trifluoromethyl)-4H-1,3-benzothiazin-4-one Hydrochloride]
M. tuberculosis H37Rv
  MIC99: 0.2 ng/mL
other
  melting point: 274 to 277 °C

## CCCCCCCN1CCCN(c2nc(=O)c3cc(C(F)(F)F)cc([N+](=O)[O-])c3s2)CC1.Cl [Compound 5, 2-(4-Heptyl-1,4-diazepan-1-yl)-8-nitro-6-(trifluoromethyl)-4H-1,3-benzothiazin-4-one Hydrochloride]
M. tuberculosis H37Rv
  MIC99: 0.3 ng/mL
other
  melting point: 256 to 258 °C

## Cl.O=c1nc(N2CCCN(C3CCCCC3)CC2)sc2c([N+](=O)[O-])cc(C(F)(F)F)cc12 [Compound 6, 2-(4-Cyclohexyl-1,4-diazepan-1-yl)-8-nitro-6-(trifluoromethyl)-4H-1,3-benzothiazin-4-one Hydrochloride]
M. tuberculosis H37Rv
  MIC99: 1 ng/mL

## Cl.O=c1nc(N2CCCN(CCc3ccccc3)CC2)sc2c([N+](=O)[O-])cc(C(F)(F)F)cc12 [Compound 7, 8-Nitro-2-[4-(2-phenylethyl)-1,4-diazepan-1-yl]-6-(trifluoromethyl)-4H-1,3-benzothiazin-4-one Hydrochloride]
M. tuberculosis H37Rv
  MIC99: 0.8 ng/mL

## O=c1nc(N2CCN(CC3CCCCC3)CC2)sc2c([N+](=O)[O-])cc(C(F)(F)F)cc12 [PBTZ169, 2-[4-(cyclohexylmethyl)piperazin-1-yl]-8-nitro-6-(trifluoromethyl)-4H-1,3-benzothiazin-4-one, reference compound]
M. tuberculosis H37Rv
  MIC99: 0.3 ng/mL (≈ 0.657 nM)
